Values belong to the molecule of their own block, whether it stands above or below them.
Columns and labels:
[1] = target: cysteines in MDA-MB-231 and Ramos cells (Homo sapiens, UniProt Q9Y5S2); test: Competitive isoTOP-ABPP in situ (fragment-treated cells); format: cell-based
USP34 C1090 (Q70CQ2) = USP34 C1090 (Q70CQ2) (Homo sapiens, UniProt Q70CQ2); test: Competitive isoTOP-ABPP, cell lysates; format: binding; conditions: for isoTOP-ABPP ratio (reactivity profile), Q70CQ2_C1090: 500 μm in-vitro ramos
KDM3A C251 (Q9Y4C1) = target: T1, KDM3A C251 (Q9Y4C1) (Homo sapiens, UniProt Q9Y4C1); test: Competitive isoTOP-ABPP, cell lysates; format: binding; conditions: for R value (DMSO/fragment): 500 μM
T1 sequence (Q9Y4C1 1-1321): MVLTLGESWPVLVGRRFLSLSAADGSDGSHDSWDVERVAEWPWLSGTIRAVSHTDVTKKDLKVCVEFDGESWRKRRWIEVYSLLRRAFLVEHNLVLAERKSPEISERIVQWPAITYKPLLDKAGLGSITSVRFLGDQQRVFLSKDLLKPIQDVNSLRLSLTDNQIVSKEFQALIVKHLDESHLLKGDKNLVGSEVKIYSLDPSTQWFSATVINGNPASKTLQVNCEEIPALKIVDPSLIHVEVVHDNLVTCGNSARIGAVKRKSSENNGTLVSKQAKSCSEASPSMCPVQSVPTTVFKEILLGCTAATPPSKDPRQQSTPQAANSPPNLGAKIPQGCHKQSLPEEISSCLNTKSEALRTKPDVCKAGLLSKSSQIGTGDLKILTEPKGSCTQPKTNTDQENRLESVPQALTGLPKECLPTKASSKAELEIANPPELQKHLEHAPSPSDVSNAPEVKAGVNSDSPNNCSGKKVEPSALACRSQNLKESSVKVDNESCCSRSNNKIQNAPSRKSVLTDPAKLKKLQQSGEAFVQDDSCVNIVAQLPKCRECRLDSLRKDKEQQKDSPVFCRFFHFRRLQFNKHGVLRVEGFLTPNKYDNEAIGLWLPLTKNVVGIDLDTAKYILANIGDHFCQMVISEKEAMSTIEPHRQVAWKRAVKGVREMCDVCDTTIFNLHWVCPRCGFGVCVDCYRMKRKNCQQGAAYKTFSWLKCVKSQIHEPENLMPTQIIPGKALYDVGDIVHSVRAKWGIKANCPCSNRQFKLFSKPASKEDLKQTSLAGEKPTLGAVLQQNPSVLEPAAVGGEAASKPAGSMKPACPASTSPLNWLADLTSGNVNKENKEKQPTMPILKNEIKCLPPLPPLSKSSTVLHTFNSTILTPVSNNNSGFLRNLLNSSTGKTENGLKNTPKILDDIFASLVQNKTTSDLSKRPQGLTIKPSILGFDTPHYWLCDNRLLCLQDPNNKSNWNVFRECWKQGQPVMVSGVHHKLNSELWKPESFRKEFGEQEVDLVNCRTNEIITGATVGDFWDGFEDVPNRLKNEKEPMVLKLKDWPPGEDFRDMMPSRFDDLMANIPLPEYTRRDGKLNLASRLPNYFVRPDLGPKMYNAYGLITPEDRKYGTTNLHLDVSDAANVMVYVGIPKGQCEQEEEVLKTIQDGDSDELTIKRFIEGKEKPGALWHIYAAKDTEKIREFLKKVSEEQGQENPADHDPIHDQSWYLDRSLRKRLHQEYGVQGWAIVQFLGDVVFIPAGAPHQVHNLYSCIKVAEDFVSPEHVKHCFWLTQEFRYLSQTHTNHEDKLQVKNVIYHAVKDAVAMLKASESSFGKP

CYR61 C134 (O00622) = target: T2, CYR61 C134 (O00622) (Homo sapiens, UniProt O00622); test: Competitive isoTOP-ABPP, cell lysates; format: binding; conditions: for isoTOP-ABPP ratio (reactivity profile), O00622_C134: 500 μm in-vitro ramos_231
T2 sequence (O00622 25-381): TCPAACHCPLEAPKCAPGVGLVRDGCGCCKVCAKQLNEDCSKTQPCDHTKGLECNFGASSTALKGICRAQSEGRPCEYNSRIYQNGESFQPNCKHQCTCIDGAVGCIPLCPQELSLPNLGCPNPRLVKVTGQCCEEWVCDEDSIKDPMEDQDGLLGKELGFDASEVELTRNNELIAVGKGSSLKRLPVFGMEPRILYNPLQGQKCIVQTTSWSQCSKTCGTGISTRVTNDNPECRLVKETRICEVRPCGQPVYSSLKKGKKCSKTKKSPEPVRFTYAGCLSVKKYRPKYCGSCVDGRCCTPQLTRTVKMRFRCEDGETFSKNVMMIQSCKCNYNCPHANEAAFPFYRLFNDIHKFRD

cysteines in MDA-MB-231 and Ramos cells, sequence (Q9Y5S2 whole entry, the tested form may be a part): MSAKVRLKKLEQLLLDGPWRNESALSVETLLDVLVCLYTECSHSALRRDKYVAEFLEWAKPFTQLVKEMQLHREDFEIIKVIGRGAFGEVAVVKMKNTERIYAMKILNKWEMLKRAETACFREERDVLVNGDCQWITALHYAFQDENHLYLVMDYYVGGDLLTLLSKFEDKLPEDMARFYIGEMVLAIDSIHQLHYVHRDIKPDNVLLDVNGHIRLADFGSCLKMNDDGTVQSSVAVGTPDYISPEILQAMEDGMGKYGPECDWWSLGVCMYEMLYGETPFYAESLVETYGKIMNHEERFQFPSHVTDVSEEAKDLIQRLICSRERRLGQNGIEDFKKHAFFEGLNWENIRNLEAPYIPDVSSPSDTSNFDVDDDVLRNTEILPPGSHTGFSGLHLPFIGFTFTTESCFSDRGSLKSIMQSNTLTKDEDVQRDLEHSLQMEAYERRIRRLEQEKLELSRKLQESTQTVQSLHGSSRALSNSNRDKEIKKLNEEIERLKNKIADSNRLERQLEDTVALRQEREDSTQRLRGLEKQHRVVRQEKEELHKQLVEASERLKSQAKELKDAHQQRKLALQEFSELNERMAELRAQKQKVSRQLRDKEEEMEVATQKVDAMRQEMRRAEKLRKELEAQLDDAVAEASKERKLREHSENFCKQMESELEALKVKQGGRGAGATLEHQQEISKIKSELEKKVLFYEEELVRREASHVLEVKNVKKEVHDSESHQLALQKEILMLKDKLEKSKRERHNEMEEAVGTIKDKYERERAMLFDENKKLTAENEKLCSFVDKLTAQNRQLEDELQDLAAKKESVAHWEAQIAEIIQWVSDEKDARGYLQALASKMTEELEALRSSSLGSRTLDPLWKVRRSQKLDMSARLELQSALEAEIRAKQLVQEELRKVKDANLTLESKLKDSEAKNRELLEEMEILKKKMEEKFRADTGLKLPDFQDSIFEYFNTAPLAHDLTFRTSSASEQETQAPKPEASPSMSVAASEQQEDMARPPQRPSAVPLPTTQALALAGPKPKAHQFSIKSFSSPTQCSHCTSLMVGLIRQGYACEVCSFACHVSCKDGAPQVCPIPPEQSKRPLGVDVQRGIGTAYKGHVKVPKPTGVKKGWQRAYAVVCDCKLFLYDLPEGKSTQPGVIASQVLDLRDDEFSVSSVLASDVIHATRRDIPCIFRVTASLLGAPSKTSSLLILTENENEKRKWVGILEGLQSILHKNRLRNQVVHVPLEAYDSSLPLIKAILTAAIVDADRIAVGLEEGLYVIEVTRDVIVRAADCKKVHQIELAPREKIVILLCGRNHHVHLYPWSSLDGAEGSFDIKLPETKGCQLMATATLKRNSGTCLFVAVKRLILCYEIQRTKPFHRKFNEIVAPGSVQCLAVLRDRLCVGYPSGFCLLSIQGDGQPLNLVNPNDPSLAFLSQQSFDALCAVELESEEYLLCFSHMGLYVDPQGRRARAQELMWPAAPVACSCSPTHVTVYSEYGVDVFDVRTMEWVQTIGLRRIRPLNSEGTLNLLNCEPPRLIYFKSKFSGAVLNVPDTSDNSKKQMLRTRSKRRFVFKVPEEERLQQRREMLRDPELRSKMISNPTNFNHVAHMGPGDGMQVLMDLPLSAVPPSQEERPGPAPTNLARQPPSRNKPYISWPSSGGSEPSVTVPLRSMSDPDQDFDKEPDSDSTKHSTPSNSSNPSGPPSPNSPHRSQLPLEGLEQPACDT

Compound: COc1ccc2c(c1)CCCN2C(=O)CCl [compound 2]
isoTOP-ABPP reactivity Q9Y5S2_C1517 CDC42BPB ([1]; 200 μM, insitu, 231): 20.0

Compound: C=CC(=O)N(c1ccccc1)c1ccc(Br)cc1 [compound 5]
isoTOP-ABPP ratio, Q70CQ2_C1090 (USP34 C1090 (Q70CQ2); 500 μM, invitro, ramos): 20.0

Compound: O=C(CCl)N1CCN(S(=O)(=O)c2ccccc2F)CC1 [compound 10]
isoTOP-ABPP ratio, O00622_C134 (CYR61 C134 (O00622); 500 μM, invitro, 231): 20.0

Compound: O=C(CCl)N1CCC(C(O)(c2ccccc2)c2ccccc2)CC1 [compound 20]
isoTOP-ABPP ratio (reactivity profile), Q70CQ2_C1090 (USP34 C1090 (Q70CQ2)): 2.7
isoTOP-ABPP ratio (reactivity profile), O00622_C134 (CYR61 C134 (O00622)): 20.0

Compound: O=C(CCl)NC12CC3CC(CC(C3)C1)C2 [compound 21]
isoTOP-ABPP ratio (reactivity profile), Q70CQ2_C1090 (USP34 C1090 (Q70CQ2)): 0.9
isoTOP-ABPP ratio (reactivity profile), Q9Y4C1_C251 (KDM3A C251 (Q9Y4C1); 500 μm in-vitro ramos_231): 0.7

Compound: C=CC(=O)N(c1ccccc1)C1CCCCC1 [compound 46]
isoTOP-ABPP reactivity profile ratio, Q9Y4C1_C251 (KDM3A C251 (Q9Y4C1); 500 μm, in-vitro_ramos_231): 1.0

Now from value to molecule:

R value (DMSO/fragment) (USP34 C1090 (Q70CQ2); 500 μM, invitro, ramos): 19.7
R value (DMSO/fragment) (KDM3A C251 (Q9Y4C1); in vitro, MDA-MB-231): 4.4
R value (DMSO/fragment) (KDM3A C251 (Q9Y4C1); invitro, ramos): 4.0
R value (DMSO/fragment) (CYR61 C134 (O00622); 500 μM, in vitro, MDA-MB-231): 20.0
Compound: O=C(CCl)Nc1cc(C(F)(F)F)cc(C(F)(F)F)c1 [compound 3]

isoTOP-ABPP reactivity Q9Y5S2_C1517 CDC42BPB ([1]; 100 μM in situ 231): 20.0
Compound: COc1ccc(C2CC(c3cccs3)=NN2C(=O)CCl)cc1 (stereo not shown) [compound 4]

isoTOP-ABPP ratio, cysteine Q9Y5S2_C1517 ([1]; 100 μM in situ 231): 1.2
Compound: Cn1cc(S(=O)(=O)N2CCOCC2)cc1C(=O)NC(=O)CCl [compound 11]

isoTOP-ABPP ratio (reactivity profile), Q9Y4C1_C251 (KDM3A C251 (Q9Y4C1); 500 μm in-vitro ramos): 1.3
Compound: CC(Br)C(=O)Nc1cc(C(F)(F)F)cc(C(F)(F)F)c1 (stereo not shown) [compound 24]

isoTOP-ABPP ratio (reactivity profile), O00622_C134 (CYR61 C134 (O00622)): 1.0
Compound: CC(Cl)C(=O)Nc1cc(C(F)(F)F)cc(C(F)(F)F)c1 (stereo not shown) [compound 25]

isoTOP-ABPP ratio (reactivity profile), O00622_C134 (CYR61 C134 (O00622)): 1.5
Compound: CC(C)CCOCCNC(=O)CCl [compound 27]

isoTOP-ABPP ratio Q9Y5S2_C1517 ([1]; 200 μM, insitu, 231): 0.4
Compound: Cc1ccc(C=C(C#N)C(=O)NCCN2CCOCC2)cc1 [compound 41]

isoTOP-ABPP ratio Q9Y5S2_C1517 ([1]; 200 μM, insitu, 231): 20.0
Compound: CC1CCc2ccccc2N1C(=O)CCl (stereo not shown) [compound 45]

Reference: patent US10670605B2, “Cysteine reactive probes and uses thereof” (The Scripps Research Institute, priority 2015, dated 2020)
